From paper PMC4817154 (Scientific Reports, 2016)
Positions count from the first letter of the chain named. Names and notes keep the numbering of the source. Values joined by “and” are separate entries in the source; they are usually repeats but may differ in a detail not shown here. Equal values may be shown once.

Experiments:
[1] = test system: NCCc1c[nH]c2ccc(O)cc12; test: cells, lysate or membranes; details: [3H]5-HT transport, T-REx-293 cells, average ± SEM, pH 7.4
[2] = biological target: hsSERT-Y95F (Homo sapiens, UniProt P31645, Y95F); details: cited from earlier work
[3] = biological target: T1, dmSERT-P488T (Drosophila melanogaster, UniProt P51905, P488T); assay type: cell-based
T1 construct: expressed in transfected cells; host or cells: T-REx-293

[4] = biological target: T2, dmSERT-D164A (Drosophila melanogaster, UniProt P51905, D164A); assay type: cell-based
T2 construct: expressed in transfected cells; host or cells: T-REx-293

[5] = biological target: T3, dmSERT-M167I (Drosophila melanogaster, UniProt P51905, M167I); assay type: cell-based
T3 construct: expressed in transfected cells; host or cells: T-REx-293

[6] = biological target: T4, dmSERT-F90Y (Drosophila melanogaster, UniProt P51905, F90Y); assay type: cell-based
T4 construct: expressed in transfected cells; host or cells: T-REx-293

[7] = biological target: T5, dmSERT-I492V (Drosophila melanogaster, UniProt P51905, I492V); assay type: cell-based
T5 construct: expressed in transfected cells; host or cells: T-REx-293

[8] = biological target: ggSERT-WT (Gallus gallus, UniProt Q6PWI2); test: Steady-state kinetics of [3H]5-HT transport; assay type: cell-based, chicken (Gallus gallus)
From the text: (§1) Control cells were transfected with empty vector.

[9] = biological target: T6, dmSERT-N484E (Drosophila melanogaster, UniProt P51905, N484E); assay type: cell-based
T6 construct: expressed in transfected cells; host or cells: T-REx-293

[10] = biological target: T7, dmSERT-G168A (Drosophila melanogaster, UniProt P51905, G168A); assay type: cell-based
T7 construct: expressed in transfected cells; host or cells: T-REx-293

[11] = biological target: T4, dmSERT-F90Y; test: cell-based
[12] = biological target: T3, dmSERT-M167I; test: cell-based
[13] = biological target: T2, dmSERT-D164A; test: cell-based
[14] = biological target: T1, dmSERT-P488T; test: cell-based
[15] = biological target: T7, dmSERT-G168A; test: cell-based
[16] = biological target: T8, dmSERT-WT (Drosophila melanogaster, UniProt P51905); test: Paroxetine inhibition of [3H]5-HT transport; assay type: cell-based
T8 construct: expressed in transfected cells; host or cells: T-REx-293
T8 sequence (P51905 1-622): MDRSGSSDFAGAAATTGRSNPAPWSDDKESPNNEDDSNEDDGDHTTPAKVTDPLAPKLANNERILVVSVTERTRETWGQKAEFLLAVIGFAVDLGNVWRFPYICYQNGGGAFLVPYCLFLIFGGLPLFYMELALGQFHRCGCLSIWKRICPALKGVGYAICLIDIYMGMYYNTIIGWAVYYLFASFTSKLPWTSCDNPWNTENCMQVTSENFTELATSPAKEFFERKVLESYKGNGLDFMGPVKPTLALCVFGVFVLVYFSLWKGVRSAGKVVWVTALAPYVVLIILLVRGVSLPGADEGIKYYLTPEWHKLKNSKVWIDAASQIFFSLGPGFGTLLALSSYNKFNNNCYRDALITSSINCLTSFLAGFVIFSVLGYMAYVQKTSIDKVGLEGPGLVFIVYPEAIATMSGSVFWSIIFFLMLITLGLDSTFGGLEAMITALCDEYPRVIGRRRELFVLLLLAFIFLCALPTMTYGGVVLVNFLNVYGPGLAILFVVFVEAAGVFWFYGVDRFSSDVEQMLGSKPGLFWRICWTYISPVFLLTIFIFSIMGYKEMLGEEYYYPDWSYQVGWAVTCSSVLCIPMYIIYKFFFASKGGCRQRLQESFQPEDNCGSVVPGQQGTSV

[17] = biological target: LeuBAT-Δ13; details: LeuBAT-Δ13 construct; cited from earlier work
[18] = biological target: T5, dmSERT-I492V; test: cell-based
[19] = biological target: ggSERT; set-up: method as in PMID 15271993; details: read-out: published paroxetine Ki for inhibition of [3H]5-HT uptake; cited from earlier work
[20] = biological target: T6, dmSERT-N484E; test: cell-based
[21] = biological target: dmSERT; set-up: method as in PMID 8197200, PMID 9677366; details: read-out: published paroxetine Ki for inhibition of [3H]5-HT uptake; cited from earlier work
[22] = substrate: NCCc1c[nH]c2ccc(O)cc12; test: cells, lysate or membranes; assay type: cell-based, chicken (Gallus gallus); details: [3H]5-HT transport, T-REx-293 cells, average ± SEM, pH 7.4
From the text: as §1

## dmSERT-N484E (Drosophila melanogaster; N484E)
[1]; other: dmSERT-N484E
  Km: 522 ± 67 nM
  Vmax: 5.2 ± 1.2 pmol/min/mg total cell protein

## OC1(c2ccc(Cl)cc2)c2ccccc2C2=NCCN21 (stereo not drawn) [mazindol]
[2]
  change in potency: increase

## dmSERT-M167I (Drosophila melanogaster; M167I)
[1]; other: dmSERT-M167I
  Km: 1,487 ± 132 nM
  Vmax: 51.6 ± 14.3 pmol/min/mg total cell protein

## dmSERT-P488T (Drosophila melanogaster; P488T)
[1]; other: dmSERT-P488T
  Km: 2,737 ± 277 nM
  Vmax: 9.8 ± 0.2 pmol/min/mg total cell protein

## NCCc1c[nH]c2ccc(O)cc12 [5-HT, 5-hydroxytryptamine]
[3]
  % wt Vmax: 15.1 ± 0.3%
[4]
  % wt Vmax: 136.0 ± 10.6%
[5]
  % wt Vmax: 79.9 ± 22.1%
[6]
  % wt Vmax: 109.7 ± 4.2%
[7]
  % wt Vmax: 89.8 ± 8.8%
[8]
  % wt Vmax: 100 ± 9.6%
[9]
  % wt Vmax: 8.0 ± 1.8%
[10]
  % wt Vmax: 330.3 ± 61.7%

## Fc1ccc([C@@H]2CCNC[C@H]2COc2ccc3c(c2)OCO3)cc1 [Paroxetine, (3S,4R)-3-[(2H-1,3-benzodioxol-5-yloxy)methyl]-4-(4-fluorophenyl)piperidine]
[11]
  IC50: 5.31 ± 0.94 nM
  Ki: 5.26 ± 0.93 nM
[12]
  IC50: 2.71 ± 0.29 nM
  Ki: 2.68 ± 0.29 nM
[13]
  IC50: 0.86 ± 0.07 nM
[13]; Ki, dmSERT-D164A, from IC50 and Km via Cheng-Prusoff
  Ki: 0.9 nM and 0.86 nM
[14]
  IC50: 20.5 ± 1.86 nM
  Ki: 20.3 ± 1.85 nM
[15]
  IC50: 2.8 ± 0.66 nM
  Ki: 2.78 ± 0.66 nM
[16]
  IC50: 6.1 ± 1.35 nM
[16]; Ki, dmSERT-WT, from IC50 and Km via Cheng-Prusoff
  Ki: 6.04 ± 1.33 nM
[17]
  Kd: ~430 nM
[18]
  IC50: 16.3 ± 1.2 nM
  Ki: 16.2 ± 1.2 nM
[19]
  Ki: 397 nM
[20]
  IC50: 1.9 ± 0.22 nM
  Ki: 1.83 ± 0.21 nM
[21]
  Ki: 3.4 nM

## dmSERT-F90Y (Drosophila melanogaster; F90Y)
[1]; other: dmSERT-F90Y
  Km: 1,784 ± 121 nM
  Vmax: 70.9 ± 2.7 pmol/min/mg total cell protein

## dmSERT-D164A (Drosophila melanogaster; D164A)
[1]; other: dmSERT-D164A
  Km: 10,258 ± 756 nM
  Vmax: 87.9 ± 6.8 pmol/min/mg total cell protein

## dmSERT-I492V (Drosophila melanogaster; I492V)
[1]; other: dmSERT-I492V
  Km: 3,281 ± 357 nM
  Vmax: 58.0 ± 5.7 pmol/min/mg total cell protein

## dmSERT-G168A (Drosophila melanogaster; G168A)
[1]; other: dmSERT-G168A
  Km: 3,342 ± 272 nM
  Vmax: 213.4 ± 39.9 pmol/min/mg total cell protein

B1: ggSERT-WT (Gallus gallus) (protein)
chain: MENKATSNETQPLTSKKGISDCNEGEDCKENGLLIRNPKSALRLVDDGNKVHPGQGDKEEAAQISNGYSGVQSSGPCSGMGEAEDAQCTAPAATTTTTTTTSTTCGAEGQQQLMELGDRETWSKKIDFLLSVIGYAVDLGNVWRFPYICYQNGGGAFLIPYTIMAIFGGIPLFYMELALGQYHRNGCISIWRKICPIFKGIGFAICIIDLYVASYYNTIMAWVFYYLVSSFTTELPWTSCNNAWNTGNCTTYFSKDNISWALHSISPAEEFYTRQVLQVHRSNGLDDLGGISWQLTLCLLLIFIIVYFSIWKGVKTSGKVVWVTATFPYVILFILLVRGATLPGAWRGVLYYLKPEWQKLLATEVWVDAAAQIFFSLGPGFGVLLAYASYNKFHNNCYQDALVTSTVNCLTSFVSGFVIFTVLGYMAEMRNEDVSEVAKDMGPSLLFITYAEAIANMPASTFFAIIFFLMLLTLGLDSTFAGLEGVITGVLDEFPHVWSKRREFFVLGLIIICFLGSLATLTFGGAYVVKLFEEYATGPAVLTVVFLEAVAVAWFYGITQFCNDVKEMLGFAPGWYWRVCWVAISPIFLLFVTCSFLSNPPELRLFDYNYPYWTTVVGYCIGTSSIICIPIYMAYRLIITPGTLKERILKSITPETATEIPFGDIRMNAV
[22]; other: ggSERT-WT
  Vmax: 18.4 ± 1.8 pmol/min/mg total cell protein

B2: ggSERT-D209A (Gallus gallus; D209A) (protein)
chain: B1 chain with D209A
[22]; other: ggSERT-D209A
  Km: 0.971 ± 0.071 µM
  Vmax: 73.8 ± 21.5 pmol/min/mg total cell protein
